Assay results published in patent US20110257242A1, “3-PHENYL-3-METHOXYPYRROLIDINE DERIVATIVES AS MODULATORS OF CORTICAL CATECHOLAMINERGIC NEUROTRANSMISSION” (NSAB, FILIAL AF NEUROSEARCH SWEDEN AB, SVERIGE, priority 2008, published 2011).

System: MK-801 pre-treated rats
Assay: Locomotor activity in MK-801 pre-treated rats (antipsychotic activity model)
Conditions: MK-801 0.7 mg/kg i.p., no test compound, recorded between 30 and 60 minutes

C[C@]12N[C@H](Cc3ccccc31)c1ccccc12 [MK-801]
Locomotor activity, MK-801 alone: 48068 counts/30 min
